Measurements as given in patent US20050272682A1, “SiRNA targeting PI3K signal transduction pathway and siRNA-based therapy” (priority 2004, published 2005).

Columns and labels:
DSS-induced colitis mice [1] = assay: DSS-induced colitis in mice, wortmannin by oral gavage; type: in vivo; details: DSS 5% 7 days, wortmannin 1.5 mg/kg oral gavage daily from day 2; day 7; DSS alone mean DAI 4; scale 0 to 4
Experimental: (§1) 60 male C57/bl6 mice aged 8 weeks and weighed around 20 g were administered with 5% (w/v) dextran sulfate sodium (DSS) in drinking water for 7 days. DSS used was 5000 MW sulfated polysaccharide (Sigma Chemical Co., St. Louis, Mo.). It is believed that DSS has direct cytotoxic effects on epithelial cells, immune cell function interference, and luminal microflora. DSS-induced inflammatory bowel disease (IBD) was characterized by epithelial damage, mucosal inflammatory infiltrates, and luminal ulceration similar to ulcerative colitis (see FIG. 1, panels A and B).
A validated clinical disease activity index (DAI) (Murano, et al., 2000; Murthy, et al., 1993) ranging from a score of 0 to 4 was calculated by an investigator blinded to the protocol using the following parameters: stool consistency, presence of fecal blood, and changes in body weight (Murano, et al., 2000). The stool consistency was assessed using the following four point scale: 0, normal; 1, soft; 2, very soft but formed; and 3, liquid. The intensity of the hemoccult paper test was scored by the following scale: 0, negative; 1, faintly blue; 2, moderately blue; 3, dark blue; and 4, blood visible. […]
Histology sections of large intestine were stained with H&E to evaluate degree of inflammatory changes in the mice before and after the wortmannin treatment. Neutrophil sequestration was assessed through MPO assay. […]

PI3K/Akt pathway = assay: Western blot of colon from mice given DSS and intrarectal siRNA; type: in vivo
Experimental: (§2) Inflammatory bowel disease (IBD) was induced in 2-month-old C57/bl6 mice using a 5% dextran sulfate sodium (DSS) solution in drinking water. siRNA directed to either p85α or Akt1 or siCONTROL was given on days 2, 3 and 4 of DSS exposure. Due to the short half-life of siRNA in vivo, siSTABLE was used which renders siRNA more resistant to degradation resulting in a half-life of 5 days. For each mouse, 5 μg of siRNA in 25 μl of transfection buffer was transferred into a sterile Eppendorf tube. In a separate sterile polystyrene tube 20 μg of DOTAP was mixed with 70 μl transfection buffer and then the siRNA mixture was transferred to the polystyrene tube containing the DOTAP and then incubated at room temperature for 30 min. Around 100 μl of the mixture was administered via the anus, by slow instillation into the lumen of the colon using a 20-gauge catheter and a 1-ml syringe. After treatment, mice were suspended head down for 30 sec. The colonic enema was performed on the second day of DSS exposure and repeated 24 and 48 h later. Cy-3 labeled siRNA were prepared for the treatment and administered as described above; mice were sacrificed at 4 and 24 hours after treatment and spleen, liver, pancreas and colon samples organs were taken and then frozen in liquid N2. Sections (6 μm) were cut with a cryostat microtome, thaw-mounted on a glass slide (cleaned with ethanol) and analyzed by fluorescent light microscopy (excitation λ=570 ηm).
Western immunoblot analyses were performed as described previously (Wang, et al., 2002). Individual colon samples were homogenized using a Polytron power homogenizer in cell lysis buffer at 4° C. for 30 min. Lysates were clarified by centrifugation (8,000 g for 20 min at 4° C.), and sonicated for 30-45 sec on ice. Protein concentrations were determined using the method of Bradford (1976). Total protein (100 μg) was resolved on a 10% polyacrylamide gel and transferred to Immobilon-P […] membranes as described previously (Wang, et al., 2002). Filters were incubated overnight at 4° C. in blocking solution followed by a 1-h incubation with primary antibodies. Filters were washed three times in blocking solution and incubated with horseradish peroxidase-conjugated secondary antibody for 1 h. After three additional washes, the immune complexes were visualized by enhanced chemiluminescence (ECL) from Amersham (Arlington Heights, Ill.).

[2] = test system: severe acute pancreatitis mice; assay: CMDE diet model of severe acute pancreatitis in mice; type: in vivo
Experimental: Choline and methionine deficient with ethionine (CMDE) was used to generate pancreatitis model in mice. Female Swiss-Webster mice were divided into two groups: control siRNA or p85α siRNA treatment group. Mice were injected with 10 μg control or p85α siRNA 3 days before and 1 day after starting experiment using hydrodynamic tail vein method. Mice were fed CMDE diet for 3 days. Ethionine (250 mg/kg, twice a day) was fed via gavage. After being fed with CMDE diet for 3 days, mice were fed with regular lab food. The mortality for 7 days was assessed in both groups.

DSS-induced colitis mice [3] = assay: DSS-induced colitis in mice, intrarectal siRNA; type: in vivo
Experimental: as §1
A validated clinical disease activity index (DAI) (Murano, et al., 2000; Murthy, et al., 1993) ranging from a score of 0 to 4 was calculated by an investigator blinded to the protocol using the following parameters: stool consistency, presence of fecal blood, and changes in body weight (Murano, et al., 2000). The stool consistency was assessed using the following four point scale: 0, normal; 1, soft; 2, very soft but formed; and 3, liquid. The intensity of the hemoccult paper test was scored by the following scale: 0, negative; 1, faintly blue; 2, moderately blue; 3, dark blue; and 4, blood visible.
as §2
Neutrophil sequestration was measured by MPO activity determination using the O-dianisidine method as previously described (Barone, et al., 1991). Whole tissue protein (100 μg) extract was used to measure the MPO activity. Activity was expressed as the amount of enzyme necessary to generate a change in absorbance of 1.0 per min per mg wet weight of tissue.
Tissue protein (100 μg) was placed in 96-well plates. Expression of IL-1β and IL-6, TNFα, and p65 NF-κB protein in whole tissue lysates was determined using anti-mouse cytokine ELISA kits from Pierce Biotechnology, Inc. (Rockford, Ill.) as previously described (Slogoff, et al., 2004). Cytokine expression of MIP-2 was determined with an anti-mouse MIP-2 ELISA purchased from Assay Designs, Inc. (Ann Arbor, Mich.). Each ELISA was performed according to the manufacturer's instructions.
Excised colons were evaluated for approximate length, for blood content, stool consistency, and general appearance of bowel wall. Histological examination was performed on three samples of the colon from each animal. The samples were fixed in 10% buffered formalin, dehydrated in ethanol, and then embedded in paraffin. Sections (4 μm) were then prepared and stained with hematoxylin and eosin.

KM20 cells = assay: DNA fragmentation assay (Cell Death Detection ELISA), KM20 cells; type: cell-based, human; details: TRAIL 100 ng/mL
Experimental: (§3) Cells were transfected with pik3r1, Akt1 or scrambled siRNA. After 48 h, adherent cells were detached by rapid trypsinization, counted in a Hausser chamber and seeded at a density of 2×10^3 cells per well in 96-well flat-bottom microtiter plates and incubated in 250 μl of growth medium for 24 h at 37° C. Media were removed and either new complete media or TRAIL (100 ng/mL) was added in a final volume of 200 μL and allowed to grow for 24 h at 37° C. After treatment, DNA fragmentation was evaluated by examination of cytoplasmic histone-associated DNA fragments (mono- and oligonucleosomes) using a Cell Death Detection ELISA^Plus kit (Roche Molecular Biochemicals) according to the manufacturer's instructions and as previously described (Wang. et al., 2002). The experiments were repeated on at least 3 separate occasions.

KM12C cells = assay: DNA fragmentation assay (Cell Death Detection ELISA), KM12C cells; type: cell-based, human; details: TRAIL 100 ng/mL
Experimental: as §3

[4] = DSS, after day 3, values near control levels by day 7
[5] = colon, compared to DSS+control siRNA

COC[C@H]1OC(=O)c2coc3c2[C@@]1(C)C1=C(C3=O)[C@@H]2CCC(=O)[C@@]2(C)C[C@H]1OC(C)=O [wortmannin, Wortmannin]
mean DAI score (DSS-induced colitis mice [1]): 2

p85α siRNA: siSTABLE siRNA duplex to Mus musculus p85α mRNA; sense gcagcaaccgaaacaaagcuu (SEQ ID NO:2), antisense gcuuuguuucgguugcugcuu (SEQ ID NO:3) (sense GCAGCAACCGAAACAAAGCUU; antisense GCUUUGUUUCGGUUGCUGCUU; siSTABLE chemically modified siRNA, pattern not given here)
Akt expression in colon (PI3K/Akt pathway): not altered | p110δ expression in colon (PI3K/Akt pathway): not altered | p85α expression in colon (PI3K/Akt pathway; normal and DSS-treated colon): decreased | pAkt expression in colon (PI3K/Akt pathway; untreated and DSS-treated colon): decreased | edema and bleeding in pancreas ([2]; 10 μg siRNA by hydrodynamic tail vein 3 days before and 1 day after start): no edema and bleeding | mice died (mortality) ([2]; after 7 days): 30% | gross changes in the colon associated with DSS treatment (shortening, intraluminal hemorrhage, necrosis) (DSS-induced colitis mice [3]; 5 μg siRNA with DOTAP intrarectally on days 2, 3 and 4 of DSS): abrogated | preventing the bowel shortening, mucosal wall thinning and blood in the colon (comparison of the two siRNA) (DSS-induced colitis mice [3]; DSS, intrarectal siRNA): more effective than siRNA to Akt1 | disease activity index (DAI), course (DSS-induced colitis mice [3]; [4]): stabilized and then improved | weight loss, course (DSS-induced colitis mice [3]; [4]): stabilized and then improved | cytokine tissue levels (IL-1β, IL-6, MIP-2, TNFα) (DSS-induced colitis mice [3]; [5]): significantly attenuated | neutrophil sequestration (MPO activity) (DSS-induced colitis mice [3]; [5]): significantly attenuated | p65 NF-κB activity (DSS-induced colitis mice [3]; [5]): significantly attenuated | leukocyte infiltration and mucosal damage (colonic histology) (DSS-induced colitis mice [3]; compared with DSS and control siRNA): decreased

Z-DEVD-fmk [reference compound]
induction of apoptosis mediated by the combination of TRAIL and pik3r1 or Akt1 siRNA (KM20 cells; KM20 cells pretreated with the caspase-3 inhibitor): completely blocked

B1: TNF-related apoptosis-inducing ligand (protein, UniProt P50591 1-281, looked up)
Tumor necrosis factor ligand …: MAMMEVQGGPSLGQTCVLIVIFTVLLQSLCVAVTYVYFTNELKQMQDKYSKSGIACFLKEDDSYWDPNDEESMNSPCWQVKWQLRQLVRKMILRTSEETISTVQEKQQNISPLVRERGPQRVAAHITGTRGRSNTLSSPNSKNEKALGRKINSWESSRSGHSFLSNLHLRNGELVIHEKGFYYIYSQTYFRFQEEIKENTKNDKQMVQYIYKYTSYPDPILLMKSARNSCWSKDAEYGLYSIYQGGIFELKENDRIFVSVTNEHLIDMDHEASFFGAFLVG
notes: apoptosis-inducing agent
effect of TRAIL alone on cell growth (KM20 cells; KM20 cells): no effect | effect of TRAIL alone on cell growth (KM12C cells): no effect
